The text below walks through data of patent US9096589B2, “Heteroaromatic phenylimidazole derivatives as PDE10A enzyme inhibitors” (H. Lundbeck A/S, priority 2009, dated 2015).

As usually defined, the IC50 is the concentration at which inhibition is half-maximal.

One experiment addresses PDE10A (Homo sapiens (Human), UniProt Q9Y233). Briefly: PDE10A inhibition assay. It counts as biochemical. Summed up:
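Human PDE10A catalytic domain (aa 440-779) was expressed in E. coli BL21(DE3), with enzyme set to convert 20-25% of substrate. Reactions used 5 nM [3H]cAMP in 50 mM HEPES pH 7.6, 10 mM MgCl2, 0.02% Tween20 and 0.1 mg/ml BSA for 1 h at rt, read by yttrium silicate SPA. IC50 is relative to the uninhibited control.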

Experiment [1] deals with rats. To be noted: cited from earlier work.
For experiment [2], the system named is rats. The settings on record: cited from earlier work. This is another data set of the same source.
Experiment [3] has as its system rats. To be noted: cited from earlier work. This is another data set of the same source.

PDE10A, sequence (Q9Y233 716-1055): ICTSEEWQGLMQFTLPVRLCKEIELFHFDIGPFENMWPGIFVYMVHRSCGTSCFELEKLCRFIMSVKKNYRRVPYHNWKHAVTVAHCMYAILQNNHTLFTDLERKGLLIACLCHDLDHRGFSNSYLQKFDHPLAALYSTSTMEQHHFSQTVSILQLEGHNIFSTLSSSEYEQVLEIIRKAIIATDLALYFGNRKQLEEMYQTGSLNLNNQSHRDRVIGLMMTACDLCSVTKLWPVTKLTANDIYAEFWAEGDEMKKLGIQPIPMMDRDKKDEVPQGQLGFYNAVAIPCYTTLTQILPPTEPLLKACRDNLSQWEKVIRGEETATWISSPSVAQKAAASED

The compound `Cc1cccc2nc(CCc3nc(-c4cccs4)cn3C[C@@H](O)CNC(C)C)nn12` [(S)-1-Isopropylamino-3-{2-[2-(5-methyl-[1,2,4]triazolo[1,5-a]pyridin-2-yl)-ethyl]-4-thiophen-2-yl-imidazol-1-yl}-propan-2-ol] came in with a half-maximal inhibitory concentration (IC50) against PDE10A of 46 nM.

With `CNC[C@H](O)Cn1cc(-c2cccs2)nc1CCc1nc2cccc(C)n2n1` [(S)-1-Methylamino-3-{2-[2-(5-methyl-[1,2,4]triazolo[1,5-a]pyridin-2-yl)-ethyl]-4-thiophen-2-yl-imidazol-1-yl}-propan-2-ol], the IC50 against PDE10A is 70 nM.

For the compound `Cc1cccc2nc(CCc3nc(-c4cccs4)cn3C[C@@H](O)CN(C)CCO)nn12` [(S)-1-[(2-Hydroxy-ethyl)-methyl-amino]-3-{2-[2-(5-methyl-[1,2,4]triazolo[1,5-a]pyridin-2-yl)-ethyl]-4-thiophen-2-yl-imidazol-1-yl}-propan-2-ol], the IC50 at PDE10A was 16 nM.

On PDE10A, `Cc1cccc2nc(CCc3nc(-c4cccs4)cn3C[C@@H](O)CN3CCOCC3)nn12` [(S)-1-{2-[2-(5-Methyl-[1,2,4]triazolo[1,5-a]pyridin-2-yl)-ethyl]-4-thiophen-2-yl-imidazol-1-yl}-3-morpholin-4-yl-propan-2-ol] gave an IC50 of 14 nM.

Take `Cc1cccc2nc(CCc3nc(-c4cccs4)cn3C[C@@H](O)CN3CCCC3)nn12` [(S)-1-{2-[2-(5-Methyl-[1,2,4]triazolo[1,5-a]pyridin-2-yl)-ethyl]-4-thiophen-2-yl-imidazol-1-yl}-3-pyrrolidin-1-yl-propan-2-ol]: on PDE10A, the midpoint of inhibition, the IC50, lay at 58 nM.

`Cc1cc(C)n2cc(CCc3nc(-c4cccs4)cn3[C@@H](C)CO)nc2n1` [(S)-2-{2-[2-(5,7-Dimethyl-imidazo[1,2-a]pyrimidin-2-yl)-ethyl]-4-thiophen-2-yl-imidazol-1-yl}-propan-1-ol] had an IC50 against PDE10A of 8.8 nM.

In the case of `Cc1cccc2nc(CCc3nc(-c4cccs4)cn3[C@@H](C)CO)nn12` [(S)-2-{2-[2-(5-Methyl-[1,2,4]triazolo[1,5-a]pyridin-2-yl)-ethyl]-4-thiophen-2-yl-imidazol-1-yl}-propan-1-ol], the IC50 on PDE10A was found to be 6.4 nM.

On PDE10A, `CNCC[C@H](O)Cn1cc(-c2cccs2)nc1CCc1nc2cccc(C)n2n1` [(S)-4-Methylamino-1-{2-[2-(5-methyl-[1,2,4]triazolo[1,5-a]pyridin-2-yl)-ethyl]-4-thiophen-2-yl-imidazol-1-yl}-butan-2-ol] came in with an IC50 of 51 nM.

`Cc1cnc(C)n2nc(CCc3nc(-c4nccs4)cn3C)nc12` [,8-Dimethyl-2-[2-(1-methyl-4-thiazol-2-yl-1H-imidazol-2-yl)-ethyl]-[1,2,4]triazolo[1,5-c]pyrimidine] returned an IC50 on PDE10A of 12 nM.

Turning to `COc1ccc(Cc2nccc3cc(OC)c(OC)cc23)cc1OC` [Papaverine, papaverine], in the experiment on rats [1], the “hyperactivity induced by PCP” value is given as “reduced hyperactivity”. Further, the “reduction of amphetamine induced hyperactivity” value in the experiment with rats [2] is “insignificant”. Besides, the “catalepsy on its own” value in the experiment with rats [3] (alone) was “did not cause catalepsy on its own”. In the experiment with rats [3] (with haloperidol), the “effect on the cataleptic effect of the D2 receptor antagonist haloperidol” value is listed as “potentiated the cataleptic effect”.

At PDE10A, `Cc1cccc2nc(CCc3nc(-c4cccs4)cn3C[C@@H](O)CN(C)CC#N)nn12` [[((S)-2-Hydroxy-3-{2-[2-(5-methyl-[1,2,4]triazolo[1,5-a]pyridin-2-yl)-ethyl]-4-thiophen-2-yl-imidazol-1-yl}-propyl)-methyl-amino]-acetonitrile] yielded an IC50 of 8.8 nM.
